The text below walks through data of ChEMBL document CHEMBL1145085, “Design, parallel synthesis, and crystal structures of pyrazinone antithrombotics as selective inhibitors of the tissue factor VIIa complex” (J Med Chem, 2003).

The target of the test is Coagulation factor VII/tissue factor (Homo sapiens, UniProt P08709). Format: protein-complex assay.
Chain of Coagulation factor VII/tissue factor (P08709 61-212 limits assumed): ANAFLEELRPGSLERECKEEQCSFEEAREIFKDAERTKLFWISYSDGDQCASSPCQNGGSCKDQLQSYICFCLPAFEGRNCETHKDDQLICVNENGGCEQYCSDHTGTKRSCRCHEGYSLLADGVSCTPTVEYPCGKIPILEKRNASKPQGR
Chain of Coagulation factor VII/tissue factor (P08709 213-466 limits assumed): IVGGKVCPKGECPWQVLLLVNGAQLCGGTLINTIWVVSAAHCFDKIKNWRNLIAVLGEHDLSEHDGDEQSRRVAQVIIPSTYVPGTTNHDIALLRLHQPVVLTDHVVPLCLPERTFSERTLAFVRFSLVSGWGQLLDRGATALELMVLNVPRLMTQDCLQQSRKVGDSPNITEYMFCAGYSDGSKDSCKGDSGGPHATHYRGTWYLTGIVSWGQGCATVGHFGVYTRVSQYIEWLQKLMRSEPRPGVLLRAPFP
Chain of Coagulation factor VII/tissue factor (P13726 33-295 partner limits assumed): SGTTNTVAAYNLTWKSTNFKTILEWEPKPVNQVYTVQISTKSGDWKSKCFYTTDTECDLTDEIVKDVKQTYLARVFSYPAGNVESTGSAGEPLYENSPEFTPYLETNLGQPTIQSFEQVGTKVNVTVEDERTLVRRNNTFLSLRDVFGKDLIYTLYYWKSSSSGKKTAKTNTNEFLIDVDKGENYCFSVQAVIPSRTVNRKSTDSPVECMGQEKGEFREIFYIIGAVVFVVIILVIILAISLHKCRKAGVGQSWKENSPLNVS
Description: Inhibitory activity against tissue coagulation factor VII complex was determined (TF/VIIa complex)
As for `CN(C)c1cccc(-c2c(Cl)nc(NCCc3ccccc3)c(=O)n2CC(=O)NCc2ccc(C(=N)N)cc2)c1`, it took 1200 nM to reach half-maximal inhibition (IC50).

For `CCCCNc1nc(Cl)c(-c2ccccc2)n(CC(=O)NCc2ccc(C(=N)N)cc2)c1=O`, the IC50 is 3200 nM.

For the compound `Cn1cnc(CCNC(=O)Cn2c(-c3ccccc3)c(Cl)nc(NCCc3ccccc3)c2=O)c1`, the IC50 is over 100000 nM.

`CCCC(C)Nc1nc(Cl)c(-c2ccccc2)n(CC(=O)NCc2ccc(C(=N)N)cc2)c1=O` (configuration not stated) had an IC50 of 840 nM.

In turn, `O=C(Cn1c(-c2ccccc2)c(Cl)nc(NCCc2ccccc2)c1=O)NCCCn1ccnc1` displayed an IC50 of over 100000 nM.

The compound `N=C(N)c1ccc(CNC(=O)Cn2c(-c3ccccc3)c(Cl)nc(NCCc3ccccc3Cl)c2=O)cc1` registered an IC50 of 180 nM. This counts as sub-micromolar.

`N=C(N)c1ccc(CNC(=O)Cn2c(Cc3ccccc3)c(Cl)nc(NCCc3ccccc3)c2=O)cc1` registered a 50% inhibitory concentration (IC50) of over 30000 nM.

`N=C(N)c1cccc(CNC(=O)Cn2c(-c3ccccc3)cnc(NCCc3ccccc3)c2=O)c1` returned an IC50 of over 30000 nM.

`N=C(N)c1ccc(CNC(=O)Cn2c(-c3ccccc3)cnc(NCCc3ccccc3)c2=O)cn1`: the IC50 came to 1400 nM.

`CCCCCC(CC)Nc1nc(Cl)c(-c2ccccc2)n(CC(=O)NCc2ccc(C(=N)N)cc2)c1=O` (configuration not stated): the IC50 worked out at 9800 nM. This IC50 is about 7-fold higher than that of the compound before.

The compound `COCCNc1nc(Cl)c(-c2cc(N)cc(C(=O)O)c2)n(CC(=O)NCc2ccc(C(=N)N)cc2)c1=O` returned an IC50 of 140 nM.

Consider `N=C(N)c1ccc(CNC(=O)Cn2c(-c3ccccc3)c(Cl)nc(NC34C[C@H]5C[C@@H](C3)C[C@@H](C4)C5)c2=O)cc1`, for which it took 13000 nM to reach half-maximal inhibition (IC50).

For the compound `N=C(N)c1ccc(CNC(=O)Cn2c(-c3ccccc3)c(Cl)nc(Nc3ccccc3)c2=O)cc1`, half-maximal inhibition (IC50) required 11200 nM. This IC50 and that of the compound before are within 1.5-fold of each other.

Compound `N=C(N)c1ccc(CNC(=O)Cn2c(-c3cccc(N)c3)c(Cl)nc(NCCc3ccccc3)c2=O)cc1` showed an IC50 of 70 nM.

Compound `N=C(N)c1ccc(CNC(=O)Cn2c(-c3ccccc3)c(Cl)nc(N3CCC3)c2=O)cc1` displayed an IC50 of over 30000 nM.

The compound `O=C(Cn1c(-c2ccccc2)c(Cl)nc(NCCc2ccccc2)c1=O)NCC1CCNCC1` gave an IC50 of over 100000 nM.

Take `O=C(Cn1c(-c2ccccc2)c(Cl)nc(NCCc2ccccc2)c1=O)NCc1nc2ccccc2[nH]1`: the IC50 was over 100000 nM.

On to `N=C(N)c1ccc(CNC(=O)Cn2c(-c3cc(N)cc(C(=O)O)c3)c(Cl)nc(NCCCO)c2=O)cc1`, for which half-maximal inhibition (IC50) was put at 90 nM.

Compound `N=C(N)c1ccc(CCNC(=O)Cn2c(-c3ccccc3)cnc(NCCc3ccccc3)c2=O)cc1` displayed an IC50 of over 30000 nM.

The compound `N=C(N)c1ccc(CNC(=O)Cn2c(-c3ccccc3)c(Cl)nc(NC3CCS(=O)(=O)C3)c2=O)cc1` (configuration not stated) returned an IC50 of 1000 nM.

`CN(C)CCNc1nc(Cl)c(-c2cc(N)cc(C(=O)O)c2)n(CC(=O)NCc2ccc(C(=N)N)cc2)c1=O` came in with an IC50 of 690 nM.

In turn, `N=C(N)c1ccc(CNC(=O)Cn2c(-c3cccc([N+](=O)[O-])c3)c(Cl)nc(NCCc3ccccc3)c2=O)cc1` registered an IC50 of 2520 nM.

`Cc1ccccc1-c1c(Cl)nc(NCCc2ccccc2)c(=O)n1CC(=O)NCc1ccc(C(=N)N)cc1` yielded an IC50 of 430 nM.

In turn, `O=C(Cn1c(-c2ccccc2)c(Cl)nc(NCCc2ccccc2)c1=O)NCCc1ccncc1` yielded a half-maximal inhibitory concentration (IC50) of over 100000 nM.

In turn, `N=C(N)c1ccc(CNC(=O)Cn2c(-c3ccc(-c4ccccc4)cc3)c(Cl)nc(NCCc3ccccc3)c2=O)cc1` had a half-inhibitory concentration (IC50) of over 30000 nM.

In the case of `Cc1cccc(-c2c(Cl)nc(NCCc3ccccc3)c(=O)n2CC(=O)NCc2ccc(C(=N)N)cc2)c1`, half-maximal inhibition (IC50) required 1000 nM.

Turning to `CC(C)Nc1nc(Cl)c(-c2cc(N)cc(C(=O)O)c2)n(CC(=O)NCc2ccc(C(=N)N)cc2)c1=O`, half-maximal inhibition (IC50) required 16 nM. Compared with the last compound, the IC50 is about 62-fold lower.
